Source: publication doi:10.1101/2025.03.14.643404, “A Bivalent Molecular Glue Linking Lysine Acetyltransferases to Oncogene-induced Cell Death” (bioRxiv, 2025)
Entries after “also recorded” stand apart in the source; their conditions may differ.

Tests used:
[1] = tested on: primary human fibroblasts; test: Viability of primary human fibroblasts, 72 h; assay type: cell-based; settings: compared with SUDHL5
Experimental: Lymphoma and leukemia cells were grown in RPMI-1640 medium (ATCC 30–2001) supplemented with 10% fetal bovine serum (FBS) and 1% 100X Penicillin-Streptomycin (Gibco, 15140122) in incubators at 37°C with 5% carbon dioxide. KARPAS422 cells were obtained from Sigma (06101702) and DB and SUDHL5 were obtained from the American Tissue Culture Collection (ATCC). The Daudi cell line, originally from ATCC, was generously provided by R. Levy’s laboratory at Stanford University. Raji cells, also from ATCC, were a gift from J. Cochran’s laboratory at Stanford University. TOLEDO and K562 cells were originally obtained from ATCC and were kindly shared by A. Alizadeh’s laboratory at Stanford University. […]
Thirty thousand cells were seeded in 100 μl of media per well of a 96-well plate and treated with drug for the indicated times and doses. A resazurin-based indicator of cell health (PrestoBlue; P50200, Thermo Fisher) was added for 1.5 h at 37°C, at which point the fluorescence ratio at 560/590 nm was recorded (Tecan Spark). The background fluorescence was subtracted, and the signal was normalized to DMSO-treated cells. IC50 measurements on cell lines were calculated using at least three biological replicates (separate cell passages). […]

K422 = test: Cell viability, 7 days compound treatment (Cell Titer-Glo), K422; assay type: cell-based; settings: Homo sapiens, 168 h; K422, 7 days; read-out: IC50 of antiproliferation
Experimental: (§1) Fifteen thousand cells were seeded in 100 μl of media per well of a U-bottom 96-well plate and treated with digitally dispensed drugs (Tecan D300e) for the indicated times and doses. After 96 hours, plates were centrifuged for 750 rpm for 3 minutes, and old media was exchanged for 100 μl of fresh media. Drug treatment was then repeated at the indicated doses. 72 hours following media change, cells were transferred to 96 well flat-bottom opaque plates. Viability was measured by adding 25 μL Cell Titer-Glo reagent (Promega G7570) to each well and luminescence was measured (BMG Labtech Pherastar FS). The background luminescence was subtracted, and the signal was normalized to DMSO-treated cells. IC50 measurements on cell lines were calculated using at least three biological replicates by separate cell passages. Fit of dose–response curves to data and statistical analysis was performed using GraphPad PRISM using the four-parameter log(inhibitor) vs response function.

SUDHL5 = test: Cell viability, 7 days compound treatment (Cell Titer-Glo), SUDHL5; assay type: cell-based; settings: Homo sapiens, SU-DHL-5, 168 h; SUDHL5, 7 days; read-out: IC50 of antiproliferation
Experimental: as §1

c-MYC = test: RNA-seq, c-MYC transcripts in SUDHL5; assay type: cell-based, human; settings: SUDHL5, 1 nM, 2 hours
Experimental: (§2) Cells were plated at 1M/mL and harvested in TRIsure (Bioline 38033). RNA was extracted using Direct-zol RNA MicroPrep columns (Zymo R2062) treated with DNAseI. cDNA was prepared (Meridian Bioscience BIO-65054) and used for qPCR (Meridian Bioscience BIO-94050) using an AppliedBiosystems QuantStudio 6Pro. Primer sequences were the following:
For sequencing library preparation, rRNA was depleted (NEB E7400) and total RNA prepared into paired-end libraries (NEB E7765) and indexed (NEB E7335). Library size distributions were confirmed using an Agilent Bioanalyzer and High Sensitivity DNA reagents (Agilent 5067) and concentrations determined by qPCR. […]
Raw reads were checked for quality using fastqc (https://www.bioinformatics.babraham.ac.uk/projects/fastqc/) and trimmed from adapters using cutadapt[111] using parameters cutadapt -a […] -b […] --nextseq-trim=20 --minimum-length 1. Transcripts were quantified using kallisto[112] against the human Gencode v33 indexed transcriptome and annotations. […] Re-processed published datasets from the Sequence Read Archive (SRA) were the following: TCIP1 – SRX20228454, SRX20228455, SRX202284546, SRX20228457, SRX20228458, SRX20228459, SRX20228448, SRX20228449, SRX20228450; CDK-TCIP1 – SRX22117221, SRX22117222, SRX22117223, SRX22117224, SRX22117225, SRX22117226, SRX22117227, SRX22117228, SRX22117229).

c-MYC mRNA = test: RT-qPCR of c-MYC transcripts in SUDHL5; assay type: cell-based, human; settings: SUDHL5, 1 nM
Experimental: as §2
• c-MYC fwd: […]; • c-MYC rev: […]; • GAPDH fwd: […]; • GAPDH rev: […].

IC50 (SUDHL5): 1.2 nM
SMILES: CNC(=O)COc1cc2cc(Nc3nc(N4CCC(C(=O)N5CCN(CCC(=O)N6CCC(n7nc(N8CCCc9cc(-c%10cnn(C)c%10)c(C(F)F)cc98)c8c7CCN(C(=O)NC)C8)CC6)CC5)CC4)ncc3Cl)cc(OC)c2n(C)c1=O [TCIP3]
cytotoxicity [1]: substantially reduced cytotoxicity; also recorded: without exhibiting toxicity
IC50 (K422): 4 nM
c-MYC mRNA log2(fold change) (c-MYC): −2.71
t1/2 of c-MYC mRNA decrease (c-MYC mRNA): 33 min
